Two compounds from US5871779A, “Treatment of arthropathies with vanadate compounds or analogues thereof” (Mount Sinai Hospital Corporation, priority 1996, dated 1999) can be followed below.

For one data set, the system named is stromelysin. Description: synovial stromelysin expression in arthritic rats (Northern blot). Type of data set: in vivo, rat. The note with it: BMOV-treated (with NAC) vs control, Day 18. Here is the method: Collagenase, stromelysin, and IL-1 expression were quantitated in each group of rats. Selected rats in each group were sacrificed on Day 18 post arthritis onset to measure collagenase, stromelysin, and IL-1 expression via the Northern Blot. Synovial biopsies were pooled and homogenized in the presence of RNASTAT-60 (Tel Test). Total RNA was isolated following the manufacturer's instructions, washed in 70% ethanol, and dissolved in 30 μl RNA loading buffer (Sigma) containing ethidium bromide. The RNA was electrophoresed on a 1% agarose formaldehyde gel and transferred to 0.45 μm nylon filter membrane (Magna NT, MSL). The blot was prehybridised in 50% formamide, 5×SSPE, 5×dendhardts, 1% SDS, 200 μg/ml ssDNA and 50 μg/ml tRNA. The rat collagenase cDNA (bp. 1-550 of locus RATCOL genbank accession M60616), rat stromelysin (ATCC, Rockville, Md.), or rat […] (genbank accession D00403) were labeled by random primed incorporation of ^32 P-dATP (Random Primed Labeling Kit, Boerhinger Manheim). After overnight hybridization at 42° C. overnight, the blot was washed in 1×SSPE at 37° C. and exposed to Kodak X-Ornat AP film for 24 hours at -70° C. with an intensifying screen. The blot was stripped with 50% formamide in 2×SSPE, checked for residual counts and reprobed. The resulting autoradiographs were digitized and analyzed with NIH image software and normalized for RNA loading.

Another data set deals with MDAY-D2 tumor. Description: MDAY-D2 tumor growth in vivo, orthovanadate, vanadyl sulphate, vanadyl hydroperoxide (Example 6B). Set-up: species or system mice. The source says: In order to examine the ability of vanadyl compounds to reduce tumor formation, growth and metastases, a specific animal model which allows investigation of all of these processes in the same animal was chosen. This model involves the injection of a metastatic haematopoietic cell line, MDAY-D2, into mice subcutaneously. These cells form a tumor at the site of injection and its size can be easily determined. In addition, these cells metastasize to the liver and metastases can be detected histologically after day 17 to 19. This model provides a very sensitive and reproducible approach to investigate the effect of vanadyl compounds on tumor growth and metastases.
In a separate experiment using the same animal model, the effect of orthovanadate, vanadyl sulphate and vanadyl hydroperoxide administration on tumor growth in vivo was examined. On Day 1, 20 mice were injected with 2×10^5 MDAY-D2 cell subcutaneously. The mice were divided into four groups of five mice. At day 5, the animals were injected subcutaneously with 50 μl of water alone or containing 10 mg/ml of orthovanadate, 10 mg/ml of vanadyl sulphate, or 10 mg/ml of vanadyl hydroperoxide. This treatment was continued daily for 16 days. At day 21, the mice were sacrificed and the tumors dissected and weighed.

For a further data set, the system named is KB8, KB8-5 and KB85-11. Put plainly: killing of drug resistant ovarian cancer cell lines KB8, KB8-5 and KB85-11. The format is cell-based. The note with it: 0-50 μM, 48 hours. The procedure: The effect of orthovanadate on three ovarian cancer cell lines, KB8, KB8-5 and KB85-11, which have increasing drug resistance, respectively, relative to the parent cell line, KB3-1 was compared. These drug resistant cell lines are not killed by several classes of chemotherapeutic agents such as colchicine, vinblastine and doxorubicin. In the study, cell lines of increasing drug resistance (KB8, KB8-5 and KB-85-11) and the parent cell line, KB3-1, were incubated in media (DMEM) containing 0-50 μM orthovanadate for 48 hours. The cells were harvested and the number of viable cells determined.

The test system of the next data set is tumor growth. Description: tumor growth in vivo, orthovanadate and N-acetylcysteine (Example 7). Set-up: species or system mice. The procedure: Since N-acetylcysteine is converted to glutathione in cells, higher levels of glutathione may not only reduce orthovanadate induced toxicity but may also reduce tumor formation.
Twenty mice were injected subcutaneously with 2×10^5 cells on Day 1. At day 4, the mice were divided into four groups of five mice. Group one (control) received subcutaneous injections of 50 μl of water. Group two received daily intraperitoneal injections of 50 μl of 250 mM N-acetylcysteine. Group three received daily subcutaneous injections of 50 μl of 10 mg/ml of orthovanadate. Group four received daily intraperitoneal injections of 50 μl of […] N-acetylcysteine and 20 minutes later received 50 μl of subcutaneous injection of 50 μl of 10 mg/ml of orthovanadate. On day 10 the treatment was stopped. The animals were sacrificed on Day 13 and analyzed for tumor growth.

The test system of another data set is MDAY-D2 cells. Put plainly: viability of MDAY-D2 cells. The format is cell-based, mouse. Conditions: 0-50 μM, 48 hours. Here is the method: (§1) Fos and jun activity are also required for cellular proliferation in many tumor cell lines. Accordingly, the effect of orthovanadate on adherent cells and cell suspensions were examined. MDAY-D2 (a mouse lymphoid cell line grown in suspension) and HTB14 cells (an adherent human primary astrocytoma cell line) were incubated in media containing 0-50 μM orthovanadate for 48 hours. The cells were harvested and the number of viable cells determined.
Three different forms of vanadyl compounds were examined for their effect on viability of cancer cell lines. MDAY-D2 cells were incubated in media containing 0-50 μM orthovanadate, vanadyl sulphate, or vanadyl hydroperoxide for 48 hours. The cells were harvested and the number of viable cells determined. […] Although there were slight differences in sensitivity, the overall cell death was similar.

For another data set, the system named is tumor cell lines. Put plainly: cell death of proliferating tumor cell lines. The format is cell-based. Here is the method:
as §1

With `Cc1occc(=O)c1[O-].Cc1occc(=O)c1[O-].[O]=[V+2]` [BMOV, bis(methylmaltolato) oxovanadium (IV)], the “percent inhibition of stromelysin gene expression” value in the data set on stromelysin came to 58%.
Turning to `[Na+].[Na+].[Na+].[O]=[V]([O-])([O-])[O-]` [orthovanadate, sodium orthovanadate], the detectable tumors result with MDAY-D2 tumor (day 21) is “one mouse did not have detectable tumors”; in the data set on tumor growth (day 13), “two had no detectable tumors”. In addition, the animal deaths result was “One animal died” with MDAY-D2 tumor (groups of five, 10 mg/ml, 50 μl daily s.c.) and “One orthovanadate treated animal died” in the data set on tumor growth (orthovanadate 50 μl 10 mg/ml s.c. daily). Besides, the “efficacy in reducing tumor growth” value in the data set on MDAY-D2 tumor (mouse, in vivo) is recorded as “most efficacy”. In addition, the “killing of drug resistant cell lines” value with KB8, KB8-5 and KB85-11 is recorded as “equally effective”. Moreover, the “toxicity to MDAY-D2 cells” value in the data set on MDAY-D2 cells is recorded as “toxic”. In addition, in the data set with MDAY-D2 cells (three forms compared), the “killing of MDAY-D2 cells” value is reported as “equally effective”. The cell death entry in the data set on tumor cell lines (0-50 μM) is “concentration dependent increase in cell death”. Moreover, in the data set with tumor cell lines (within 3 days of continuous treatment), the cell death complete entry is recorded as “over 98%”.
